# In patent publication US6727264B1 (Synaptic Pharmaceutical Corporation, priority 2001, dated 2004):
# Target: rat MCH-1 (Rattus norvegicus, UniProt P97639)
# Assay: Radioligand binding assay at cloned rat MCH1 receptor ([3H] Compound A)
# Design: host or cells: Peak rapid 293 (Peakr293) cells, transient calcium phosphate transfection, membranes
# Conditions: cloned rat MCH1 receptor; 0.08 nM [3H] Compound A; Peakr293 cell membranes; read-out: Ki (nM) rMCH1
# Chain of rat MCH-1 (P97639 whole entry): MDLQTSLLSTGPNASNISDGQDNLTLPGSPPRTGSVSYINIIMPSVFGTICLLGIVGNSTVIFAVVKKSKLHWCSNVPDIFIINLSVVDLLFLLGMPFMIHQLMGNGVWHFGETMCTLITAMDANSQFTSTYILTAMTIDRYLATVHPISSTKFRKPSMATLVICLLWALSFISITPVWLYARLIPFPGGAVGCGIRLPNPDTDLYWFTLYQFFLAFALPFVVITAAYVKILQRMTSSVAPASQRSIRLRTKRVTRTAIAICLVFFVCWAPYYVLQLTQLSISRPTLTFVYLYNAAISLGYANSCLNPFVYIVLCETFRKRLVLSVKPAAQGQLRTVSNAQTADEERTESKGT
row,Ki,Compound
1,81.6 nM,CC(C)C(=O)Nc1cccc(C2CCN(CCNC(=O)Nc3ccc(-c4ccccc4)cc3)CC2)c1 [Example 647]
2,13.4 nM,CC(C)C(=O)Nc1cccc(C2CCN(CCNC(=O)c3coc(Oc4cc(Cl)cc(Cl)c4)c3)CC2)c1 [Example 648]
3,1.7 nM,CC(C)C(=O)Nc1cccc(C2CCN(CCNC(=O)C(c3ccccc3)c3ccccc3)CC2)c1 [Example 649]
4,21.1 nM,CC(C)C(=O)Nc1cccc(C2CCN(CCNC(=O)c3ccc4ccccc4c3)CC2)c1 [Example 650]
5,16.7 nM,Cc1onc(-c2c(Cl)cccc2Cl)c1C(=O)NCCCCN1CCC(c2cccc(NC(=O)C(C)C)c2)CC1 [Example 651]
6,48.8 nM,CC(C)C(=O)Nc1cccc(C2CCN(CCCCNC(=O)C(c3ccccc3)c3ccccc3)CC2)c1 [Example 653]
7,43.6 nM,CC(C)C(=O)Nc1cccc(C2CCN(CCCCCNC(=O)C(c3ccccc3)c3ccccc3)CC2)c1 [Example 654]
8,31.1 nM,CC(C)C(=O)Nc1cccc(C2CCN(CCCCNC(=O)c3cc(Cl)cc(Cl)c3)CC2)c1 [Example 655]
9,49.7 nM,CC(C)C(=O)Nc1cccc(C2CCN(CCCCNC(=O)c3ccc(Oc4cc(Cl)cc(Cl)c4)o3)CC2)c1 [Example 656]
10,77.9 nM,CC(C)C(=O)Nc1cccc(C2CCN(CCCCNC(=O)c3cccc(Cl)c3)CC2)c1 [Example 657]
11,12 nM,CC(C)C(=O)Nc1cccc(C2CCN(CCCCNC(=O)c3ccc(F)c(F)c3)CC2)c1 [Example 658]
12,40.2 nM,CC(C)C(=O)Nc1cccc(C2CCN(CCCCNC(=O)Nc3cc(Cl)cc(Cl)c3)CC2)c1 [Example 659]
13,129 nM,CC(C)C(=O)Nc1cccc(C2CCN(CCCCNC(=O)Nc3ccc(-c4ccccc4)cc3)CC2)c1 [Example 660]
14,33.3 nM,CC(C)C(=O)Nc1cccc(C2CCN(CCCCC(=O)c3ccc([N+](=O)[O-])cc3)CC2)c1 [Example 661]
15,50.3 nM,CC(C)C(=O)Nc1cccc(C2CCN(CCCCC(=O)c3ccc(F)cc3)CC2)c1 [Example 662]
16,73.4 nM,CC(C)C(=O)Nc1cccc(C2CCN(CCCCC(=O)c3ccccc3C(F)(F)F)CC2)c1 [Example 663]
17,21.9 nM,CC(C)C(=O)Nc1cccc(C2CCN(CCCCC(=O)c3cccc(Br)c3)CC2)c1 [Example 664]
18,21.9 nM,CC(C)C(=O)Nc1cccc(C2CCN(CCCCC(=O)c3cccc(Cl)c3)CC2)c1 [Example 666]
19,43.9 nM,CC(C)C(=O)Nc1cccc(C2CCN(CCCCC(=O)c3ccc(Br)cc3)CC2)c1 [Example 667]
20,25.8 nM,CC(C)C(=O)Nc1cccc(C2CCN(CCCCC(=O)c3ccccc3I)CC2)c1 [Example 668]
21,42.2 nM,CC(C)C(=O)Nc1cccc(C2CCN(CCCCC(=O)c3cccc(F)c3)CC2)c1 [Example 669]
22,57.6 nM,CC(C)C(=O)Nc1cccc(C2CCN(CCCCC(=O)c3cccc(C(F)(F)F)c3)CC2)c1 [Example 670]
23,88.6 nM,CC(C)C(=O)Nc1cccc(C2CCN(CCCCC(=O)c3ccccc3F)CC2)c1 [Example 671]
24,19.7 nM,CC(C)C(=O)Nc1cccc(C2CCN(CCCCC(=O)c3cccc(I)c3)CC2)c1 [Example 672]

row,Ki,Compound
1,32.5 nM,CC(C)C(=O)Nc1cccc(C2CCN(CCCCC(=O)c3ccccc3Cl)CC2)c1 [Example 673]
2,39.6 nM,CC(C)C(=O)Nc1cccc(C2CCN(CCCCC(=O)c3ccc(C(F)(F)F)cc3)CC2)c1 [Example 674]
3,32.6 nM,CC(C)C(=O)Nc1cccc(C2CCN(CCCCC(=O)c3ccc(Cl)cc3)CC2)c1 [Example 675]
4,21.9 nM,CC(C)C(=O)Nc1cccc(C2CCN(CCCCC(=O)c3ccc(I)cc3)CC2)c1 [Example 676]
5,52.3 nM,CC(C)C(=O)Nc1cccc(C2CCN(CCCCC(=O)c3ccccc3Br)CC2)c1 [Example 677]
6,14.7 nM,CC(C)C(=O)Nc1cccc(C2CCN(CCCCNC(=O)c3cccnc3Oc3ccc(Cl)cc3)CC2)c1 [Example 678]
7,97.9 nM,COc1ccc(C(=O)NCCCCN2CCC(c3cccc(NC(=O)C(C)C)c3)CC2)cc1OC [Example 679]
8,28.1 nM,Cc1onc(-c2ccccc2Cl)c1C(=O)NCCCCN1CCC(c2cccc(NC(=O)C(C)C)c2)CC1 [Example 680]
9,23.9 nM,Cc1onc(-c2ccccc2Cl)c1C(=O)NCCCCCN1CCC(c2cccc(NC(=O)C(C)C)c2)CC1 [Example 681]
10,7.1 nM,CC(C)C(=O)Nc1cccc(C2CCN(CCCc3c(-c4ccc(C(F)(F)F)cc4)n(C)c4ccccc34)CC2)c1 [Example 682]
11,54.2 nM,CC(C)C(=O)Nc1cccc(C2CCN(CCCc3c(-c4ccc(C(F)(F)F)cc4)[nH]c4ccc(OC(F)(F)F)cc34)CC2)c1 [Example 683]
12,5.4 nM,CC(C)C(=O)Nc1cccc(C2CCN(CCCc3c(-c4ccc(C(F)(F)F)cc4)[nH]c4ccccc34)CC2)c1 [Example 684]
13,82.4 nM,CC(C)C(=O)Nc1cccc(C2CCN(CCCc3c(-c4ccc(C(F)(F)F)cc4)n(-c4ccccc4)c4ccccc34)CC2)c1 [Example 685]
14,33.9 nM,"CC(C)C(=O)Nc1cccc(C2CCN(CCCc3c(-c4ccc(C(F)(F)F)cc4)[nH]c4c3ccc3ccccc34)CC2)c1 [Example 686, 2-METHYL-N-{3-[1-(3-(2-[4-(TRIFLUOROMETHYL)PHENYL]-1H-BENZO [G]INDOL-3-YL}PROPYL)-4-PIPERIDINYL]PHENYL}PROPANAMIDE]"
15,20.6 nM,Cc1cccc2c(CCCN3CCC(c4cccc(NC(=O)C(C)C)c4)CC3)c(-c3ccc(C(F)(F)F)cc3)[nH]c12 [Example 687]
16,41 nM,Cc1ccc2[nH]c(-c3ccc(C(F)(F)F)cc3)c(CCCN3CCC(c4cccc(NC(=O)C(C)C)c4)CC3)c2c1 [Example 688]
17,11.3 nM,COc1ccc2[nH]c(-c3ccc(C(F)(F)F)cc3)c(CCCN3CCC(c4cccc(NC(=O)C(C)C)c4)CC3)c2c1 [Example 689]
18,5.2 nM,Cc1cccc2c(CCCN3CCC(c4cccc(NC(=O)C(C)C)c4)CC3)c(-c3cccc(F)c3)[nH]c12 [Example 690]
19,16.3 nM,CC(C)C(=O)Nc1cccc(C2CCN(CCCc3c(-c4ccc(Cl)cc4)n(C)c4ccccc34)CC2)c1 [Example 691]
20,2 nM,COc1ccc2[nH]c(-c3ccc(F)cc3)c(CCCN3CCC(c4cccc(NC(=O)C(C)C)c4)CC3)c2c1 [Example 692]
21,0.4 nM,CC(C)C(=O)Nc1cccc(C2CCN(CCCc3c(-c4ccccc4F)[nH]c4ccccc34)CC2)c1 [Example 693]
22,6.4 nM,CC(C)C(=O)Nc1cccc(C2CCN(CCCc3c(-c4cccc(F)c4)[nH]c4ccc(OC(F)(F)F)cc34)CC2)c1 [Example 694]
23,2.1 nM,CC(C)C(=O)Nc1cccc(C2CCN(CCCc3c(-c4ccccc4F)[nH]c4ccc(OC(F)(F)F)cc34)CC2)c1 [Example 695]
24,48.3 nM,CC(C)C(=O)Nc1cccc(C2CCN(CCCc3c(-c4ccc(F)cc4)n(-c4ccccc4)c4ccccc34)CC2)c1 [Example 696]

row,Ki,Compound
1,3 nM,CC(C)C(=O)Nc1cccc(C2CCN(CCCc3c(-c4ccccc4F)[nH]c4c3ccc3ccccc34)CC2)c1 [Example 697]
2,3 nM,Cc1ccc2[nH]c(-c3ccccc3F)c(CCCN3CCC(c4cccc(NC(=O)C(C)C)c4)CC3)c2c1 [Example 698]
3,5.4 nM,CC(C)C(=O)Nc1cccc(C2CCN(CCCc3c(-c4cccc(F)c4)[nH]c4c3ccc3ccccc34)CC2)c1 [Example 699]
4,2 nM,CC(C)C(=O)Nc1cccc(C2CCN(CCCc3c(-c4ccc(F)cc4)n(C)c4ccccc34)CC2)c1 [Example 700]
5,2.5 nM,COc1ccc2[nH]c(-c3cccc(F)c3)c(CCCN3CCC(c4cccc(NC(=O)C(C)C)c4)CC3)c2c1 [Example 701]
6,27 nM,CC(C)C(=O)Nc1cccc(C2CCN(CCCc3c(-c4cccc(F)c4)n(-c4ccccc4)c4ccccc34)CC2)c1 [Example 702]
7,16.6 nM,CC(C)C(=O)Nc1cccc(C2CCN(CCCc3c(-c4ccc(Cl)cc4)[nH]c4ccc(OC(F)(F)F)cc34)CC2)c1 [Example 703]
8,1.2 nM,CC(C)C(=O)Nc1cccc(C2CCN(CCCc3c(-c4cccc(F)c4)[nH]c4ccccc34)CC2)c1 [Example 704]
9,8.5 nM,CC(C)C(=O)Nc1cccc(C2CCN(CCCc3c(-c4cccc(F)c4)n(C)c4ccccc34)CC2)c1 [Example 705]
10,4.2 nM,Cc1ccc2[nH]c(-c3cccc(F)c3)c(CCCN3CCC(c4cccc(NC(=O)C(C)C)c4)CC3)c2c1 [Example 706]
11,19.6 nM,CC(C)C(=O)Nc1cccc(C2CCN(CCCc3c(-c4ccc(Cl)cc4)[nH]c4c3ccc3ccccc34)CC2)c1 [Example 707]
12,3.8 nM,CC(C)C(=O)Nc1cccc(C2CCN(CCCc3c(-c4ccc(Cl)cc4)[nH]c4ccccc34)CC2)c1 [Example 708]
13,1.3 nM,CC(C)C(=O)Nc1cccc(C2CCN(CCCc3c(-c4ccccc4F)n(C)c4ccccc34)CC2)c1 [Example 709]
14,6.9 nM,Cc1cccc2c(CCCN3CCC(c4cccc(NC(=O)C(C)C)c4)CC3)c(-c3ccccc3F)[nH]c12 [Example 710]
15,90.5 nM,CC(C)C(=O)Nc1cccc(C2CCN(CCCc3c(-c4ccccc4F)n(-c4ccccc4)c4ccccc34)CC2)c1 [Example 711]
16,8.6 nM,COc1ccc2[nH]c(-c3ccccc3F)c(CCCN3CCC(c4cccc(NC(=O)C(C)C)c4)CC3)c2c1 [Example 712]
17,7.7 nM,COc1ccc2[nH]c(-c3ccc(Cl)cc3)c(CCCN3CCC(c4cccc(NC(=O)C(C)C)c4)CC3)c2c1 [Example 713]
18,4.7 nM,CC(C)C(=O)Nc1cccc(C2CCN(CCCc3c(-c4ccc(F)cc4)[nH]c4c3ccc3ccccc34)CC2)c1 [Example 714]
19,4.2 nM,CC(C)C(=O)Nc1cccc(C2CCN(CCCc3c(-c4ccc(F)cc4)[nH]c4ccc(OC(F)(F)F)cc34)CC2)c1 [Example 715]
20,4.5 nM,Cc1cccc2c(CCCN3CCC(c4cccc(NC(=O)C(C)C)c4)CC3)c(-c3ccc(F)cc3)[nH]c12 [Example 716]
21,1.3 nM,CC(C)C(=O)Nc1cccc(C2CCN(CCCc3c(-c4ccc(F)cc4)[nH]c4ccccc34)CC2)c1 [Example 717]
22,3.4 nM,Cc1ccc2[nH]c(-c3ccc(F)cc3)c(CCCN3CCC(c4cccc(NC(=O)C(C)C)c4)CC3)c2c1 [Example 718]
